The values that follow come from PubChem BioAssay AID743302 (Broad Institute, 2014).

“And” between values parts separate entries of the source, which are not always exact repeats. Equal values may be shown once. The source made the active and inactive calls.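 The calls were made as follows: active = fitted curve rises past activity 40 at a concentration no higher than the top valid tested dose; inconclusive = flat curve at 30 to 70 percent, or poor fit; inactive = the rest, including activity in the opposite direction.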 A value given as a limit tells only on which side of the number the result lay.

In the first experiment the test system is C. neoformans lysis, adenylate kinase release luminescence, 4 h. Briefly: inducers of C. neoformans cell lysis, dose response, AK release luminescence, dry powder, set 3 (AID 743302).
Conditions: not given
With `Cc1ccc(C(C)C)c(OCCn2c(=S)[nH]c3cccc(Cl)c32)c1`, the AC40 was > 15000 nM (inactive).

`Fc1cccc2c1[nH]c(=S)n2CCOc1ccccc1`: the AC40 was 3180 nM and 2700 nM and 1570 nM.

Regarding `Cc1ccc(C(C)C)c(OCCn2c(=S)[nH]c3ccc(F)cc32)c1`, the AC40 was 1060 nM.

As for `Fc1cccc(OCCn2c(=S)[nH]c3ccccc32)c1`, the AC40 is 3270 nM.

Regarding `CC(C)(C)c1ccccc1OCCn1c(=S)[nH]c2ccccc21`, the AC40 is 3230 nM.

In the case of `COc1ccc(OCCn2c(=S)[nH]c3ccccc32)cc1`, the AC40 is 13700 nM.

In the case of `c1ccc(OCCn2cnc3ccccc32)cc1`, the AC40 is > 15000 nM (inactive).

Consider `Cc1ccc(C(C)C)c(OCCn2c(=S)[nH]c3cc(F)ccc32)c1`, for which the AC40 was 5510 nM.

As for `Fc1ccc2c(c1)[nH]c(=S)n2CCOc1ccccc1`, the AC40 was 3060 nM and 1950 nM.

With `S=c1[nH]c2ccccc2n1CCOc1ccc(Cl)cc1`, the AC40 was 1190 nM.

As to `Cc1ccc(C(C)C)c(OCCn2c(=S)[nH]c3ccc(Cl)cc32)c1`, the AC40 was > 15000 nM (inactive).

In the case of `Cc1ccc(OCCn2c(=S)[nH]c3ccccc32)c(C)c1`, the AC40 was > 15000 nM (inactive).

In the case of `Cc1ccccc1OCCn1c(=S)[nH]c2ccccc21`, the AC40 is 1870 nM.

As for `CC(C)c1ccc(OCCn2c(=S)[nH]c3ccccc32)cc1`, the AC40 is 172 nM.

In the case of `O=c1[nH]c2ccccc2n1CCOc1ccccc1`, the AC40 was > 15000 nM (inactive).

In the case of `Cc1cccc(OCCn2c(=S)[nH]c3ccccc32)c1`, the AC40 was 910 nM.

With `Cc1ccc2c(c1)[nH]c(=S)n2CCOc1ccccc1`, the AC40 was 4240 nM and 940 nM.

As to `COc1cccc(OCCn2c(=S)[nH]c3ccccc32)c1`, the AC40 was > 15000 nM (inactive).

Consider `CC(C)c1ccccc1OCCn1c(=S)[nH]c2ccccc21`, for which the AC40 is 1110 nM.

Regarding `CC(C)c1ccccc1NCCn1c(=S)[nH]c2ccccc21`, the AC40 is 5860 nM.

For the compound `S=c1[nH]c2cccc(Cl)c2n1CCOc1ccccc1`, the AC40 was 3600 nM and 619 nM.

Turning to `Cc1ccc(C(C)C)c(OCCn2c(=S)[nH]c3ccccc32)c1`, the AC40 is 3570 nM and 2720 nM.

Consider `Cc1ccc(C(C)C)c(OCCn2c(=S)[nH]c3c(C)cccc32)c1`, for which the AC40 is 1820 nM.

In the case of `Cc1ccc(OCCn2c(=S)[nH]c3ccccc32)cc1`, the AC40 was 1140 nM.

As to `Cc1ccc(OCCn2cnc3ccccc32)cc1`, the AC40 was > 15000 nM (inactive).

With `Cc1cccc2[nH]c(=S)n(CCOc3ccccc3)c12`, the AC40 was 211 nM.

Consider `Cc1ccc(OCCn2c(C)nc3ccccc32)cc1`, for which the AC40 was > 15000 nM (inactive).

With `S=c1[nH]c2cc(Cl)ccc2n1CCOc1ccccc1`, the AC40 is 358 nM.

Turning to `Cc1cccc(OCCn2c(=S)[nH]c3c(F)cccc32)c1`, the AC40 was 726 nM and 1300 nM.

As to `Cc1cccc(OCCn2c(=S)[nH]c3cc(F)ccc32)c1`, the AC40 was 581 nM and 1820 nM.

For the compound `Cc1ccc(OCCn2c(=S)[nH]c3ccccc32)c(C(C)C)c1`, the AC40 is 9540 nM and 1410 nM.

`Cc1cccc(OCCn2c(=S)[nH]c3cc(C(F)(F)F)ccc32)c1`: the AC40 was > 15000 nM (inactive).

Regarding `Cc1ccc(C)c(OCCn2c(=S)[nH]c3ccccc32)c1`, the AC40 was 1820 nM.

As for `Cc1ccc(C(C)C)c(OCCn2c(=S)[nH]c3c(Cl)cccc32)c1`, the AC40 was > 15000 nM (inactive).

Turning to `Fc1ccc2[nH]c(=S)n(CCOc3ccccc3)c2c1`, the AC40 is > 15000 nM (inactive).

`Cc1ccc(OCCn2c(SCCO)nc3ccccc32)c(C(C)C)c1`: the AC40 was > 15000 nM (inactive).

On to `COCc1nc2ccccc2n1CCOc1ccc(C(C)(C)C)cc1`, for which the AC40 was 6790 nM.

Regarding `Cc1ccc(C(C)C)c(OCCn2c(=S)[nH]c3cccc(C)c32)c1`, the AC40 is 8260 nM.

Take `Cc1cccc(OCCn2c(=S)[nH]c3ccccc32)c1C`: the AC40 was > 15000 nM (inactive).

As for `Cc1cccc(OCCn2c(=S)[nH]c3ccc(C(F)(F)F)cc32)c1`, the AC40 was 14300 nM.

On to `Fc1ccccc1OCCn1c(=S)[nH]c2ccccc21`, for which the AC40 is 8740 nM.

On to `Cc1ccc(OCCn2cnc3ccccc32)c(C(C)C)c1`, for which the AC40 was 3820 nM.

Turning to `CCOc1ccc(OCCn2c(=S)[nH]c3ccccc32)cc1`, the AC40 is 1380 nM.

With `Cc1ccc(C(C)C)c(OCCn2c(CO)nc3ccccc32)c1`, the AC40 was 14000 nM.

On to `CC(C)(C)c1ccc(OCCn2cnc3ccccc32)cc1`, for which the AC40 is 1950 nM.

As for `Cc1ccc(C(C)C)c(OCCn2c(=S)[nH]c3cccc(F)c32)c1`, the AC40 is > 15000 nM (inactive).

On to `S=c1[nH]c2ccccc2n1CCOc1ccccc1Cl`, for which the AC40 is 902 nM.

Tested on in the next experiment: not listed separately
Described as above. The settings on record: C. neoformans lysis, adenylate kinase release luminescence, 4 h; at 15 µM (top of the series).
Regarding `Fc1ccc(OCCn2c(=S)[nH]c3ccccc32)cc1`, the cell lysis activity is -54.7% (inactive).

On to `S=c1[nH]c2ccccc2n1CCOc1ccccc1`, for which the cell lysis activity is 33.9% (inactive).

Regarding `Cc1ccc(C(C)C)c(OCCn2c(=S)[nH]c3c(F)cccc32)c1`, the cell lysis activity is -28.6% (inactive).

`CC(C)(C)c1ccc(OCCn2c(=S)[nH]c3ccccc32)cc1`: the cell lysis activity is 4.17% (inactive).

Consider `CSc1nc2ccccc2n1CCOc1cc(C)ccc1C(C)C`, for which the cell lysis activity is 3.47% (inactive).

Regarding `COc1ccccc1OCCn1c(=S)[nH]c2ccccc21`, the cell lysis activity is -4.68% (inactive).
